Data taken from patent US6479435B1, “Diaryl ethers and processes for their preparation and herbicidal and desiccant compositions containing them” (ISK Americas Incorporated, priority 1997, dated 2002).

Experiments:
Format in all cases: in vivo
[1] = test system: Johnsongrass (Sorghum halepense, SORHA); assay: Pre-emerge greenhouse herbicide test, phytotoxicity rating; conditions: 14 days after application, rating scale 0-100
Method in brief: (§1)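 Seeds sown in sandy loam mix one day before track-sprayer application of compounds in acetone at 125–1000 g ai/ha (187 l/ha), then surface-watered to incorporate and bottom-watered. Visual rating 14 days after application on a 0–100 scale (0 = no damage, 100 = all plants dead).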

[2] = test system: barnyardgrass (Echinochloa crusgalli, ECHCG); assay: as above; conditions: 14 days after application, rating scale 0-100
Method in brief: as §1

[3] = test system: common ragweed (Ambrosia artemisiifolia L., AMBEL); assay: as above; conditions: 14 days after application, rating scale 0-100
Method in brief: as §1

[4] = test system: green foxtail (Setaria viridis, SETVI); assay: as above; conditions: 14 days after application, rating scale 0-100
Method in brief: as §1

[5] = test system: ivyleaf morningglory (Ipomoea hederacea, IPOHE); assay: as above; conditions: 14 days after application, rating scale 0-100
Method in brief: as §1

[6] = test system: lambsquarters (Chenopodium album, CHEAL); assay: as above; conditions: 14 days after application, rating scale 0-100
Method in brief: as §1

[7] = test system: large crabgrass (Digitaria sanguinalis, DIGSA); assay: as above; conditions: 14 days after application, rating scale 0-100
Method in brief: as §1

[8] = test system: redroot pigweed (Amaranthus retroflexus, AMARE); assay: as above; conditions: 14 days after application, rating scale 0-100
Method in brief: as §1

[9] = test system: sicklepod (Cassia obtusifolia, CASOB); assay: as above; conditions: 14 days after application, rating scale 0-100
Method in brief: as §1

[10] = test system: velvetleaf (Abutilon theophrasti, ABUTH); assay: as above; conditions: 14 days after application, rating scale 0-100
Method in brief: as §1

[11] = test system: common ragweed (Ambrosia artemisiifolia L., AMBEL); assay: Post-emerge greenhouse herbicide test, phytotoxicity rating; conditions: 14 days after application
Method in brief: (§2)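 Compounds in acetone with 0.25% v/v non-ionic surfactant were track-sprayed at 187 l/ha over plants at the 2-3 leaf stage, at 63 to 1000 g ai/ha. Pots were bottom-watered. Injury was scored visually 14 days later on a 0-100 scale, where 0 is no damage and 100 is complete plant death.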

[12] = test system: Johnsongrass (Sorghum halepense, SORHA); assay: as above; conditions: 14 days after application
Method in brief: as §2

[13] = test system: barnyardgrass (Echinochloa crusgalli, ECHCG); assay: as above; conditions: 14 days after application
Method in brief: as §2

[14] = test system: green foxtail (Setaria viridis, SETVI); assay: as above; conditions: 14 days after application
Method in brief: as §2

[15] = test system: ivyleaf morningglory (Ipomoea hederacea, IPOHE); assay: as above; conditions: 14 days after application
Method in brief: as §2

[16] = test system: lambsquarters (Chenopodium album, CHEAL); assay: as above; conditions: 14 days after application
Method in brief: as §2

[17] = test system: large crabgrass (Digitaria sanguinalis, DIGSA); assay: as above; conditions: 14 days after application
Method in brief: as §2

[18] = test system: redroot pigweed (Amaranthus retroflexus, AMARE); assay: as above; conditions: 14 days after application
Method in brief: as §2

[19] = test system: sicklepod (Cassia obtusifolia, CASOB); assay: as above; conditions: 14 days after application
Method in brief: as §2

[20] = test system: velvetleaf (Abutilon theophrasti, ABUTH); assay: as above; conditions: 14 days after application
Method in brief: as §2

## O=c1n(CCCF)nnn1-c1cc(Oc2ncccn2)c(Cl)cc1F [Compound 6-10, 1-[4-chloro-2-fluoro-5-(2-pyrimidyloxy)phenyl]-4-(3-fluoropropyl)-1,4-dihydro-5-oxo-5H-tetrazole]
[1]; 125 g ai/ha
  phytotoxicity rating SORHA: 100
[1]; 500 g ai/ha
  phytotoxicity rating SORHA: 100
[2]; 125 g ai/ha
  phytotoxicity rating ECHCG: 100
[2]; 500 g ai/ha
  phytotoxicity rating ECHCG: 100
[3]; 125 g ai/ha
  phytotoxicity rating AMBEL: 100
[3]; 500 g ai/ha
  phytotoxicity rating AMBEL: 100
[4]; 125 g ai/ha
  phytotoxicity rating SETVI: 100
[4]; 500 g ai/ha
  phytotoxicity rating SETVI: 100
[5]; 125 g ai/ha
  phytotoxicity rating IPOHE: 100
[5]; 500 g ai/ha
  phytotoxicity rating IPOHE: 100
[6]; 125 g ai/ha
  phytotoxicity rating CHEAL: 100
[6]; 500 g ai/ha
  phytotoxicity rating CHEAL: 100
[7]; 125 g ai/ha
  phytotoxicity rating DIGSA: 100
[7]; 500 g ai/ha
  phytotoxicity rating DIGSA: 100
[8]; 125 g ai/ha
  phytotoxicity rating AMARE: 100
[8]; 500 g ai/ha
  phytotoxicity rating AMARE: 100
[9]; 125 g ai/ha
  phytotoxicity rating CASOB: 40
[9]; 500 g ai/ha
  phytotoxicity rating CASOB: 100
[10]; 125 g ai/ha
  phytotoxicity rating ABUTH: 100
[10]; 500 g ai/ha
  phytotoxicity rating ABUTH: 100
[11]; 63 g al/ha
  AMBEL phytotoxicity rating (0-100): 30
[11]; 500 g al/ha
  AMBEL phytotoxicity rating (0-100): 100
[12]; 63 g al/ha
  SORHA phytotoxicity rating (0-100): 0
[12]; 500 g al/ha
  SORHA phytotoxicity rating (0-100): 100
[13]; 63 g al/ha
  ECHCG phytotoxicity rating (0-100): 30
[13]; 500 g al/ha
  ECHCG phytotoxicity rating (0-100): 100
[14]; 63 g al/ha
  SETVI phytotoxicity rating (0-100): 30
[14]; 500 g al/ha
  SETVI phytotoxicity rating (0-100): 100
[15]; 63 g al/ha
  IPOHE phytotoxicity rating (0-100): 100
[15]; 500 g al/ha
  IPOHE phytotoxicity rating (0-100): 100
[16]; 63 g al/ha
  CHEAL phytotoxicity rating (0-100): 90
[16]; 500 g al/ha
  CHEAL phytotoxicity rating (0-100): 100
[17]; 63 g al/ha
  DIGSA phytotoxicity rating (0-100): 50
[17]; 500 g al/ha
  DIGSA phytotoxicity rating (0-100): 100
[18]; 63 g al/ha
  AMARE phytotoxicity rating (0-100): 90
[18]; 500 g al/ha
  AMARE phytotoxicity rating (0-100): 100
[19]; 63 g al/ha
  CASOB phytotoxicity rating (0-100): 30
[19]; 500 g al/ha
  CASOB phytotoxicity rating (0-100): 100
[20]; 63 g al/ha
  ABUTH phytotoxicity rating (0-100): 100
[20]; 500 g al/ha
  ABUTH phytotoxicity rating (0-100): 100

## O=c1sc(=Nc2cc(Oc3ncccc3C(F)(F)F)c(Cl)cc2F)n2n1CCCC2 [Compound 7-1, 9-[4-chloro-2-fluoro-5-(3-trifluoromethyl-2-pyridyloxy)phenylimino]-8-thia-1,6-diazabicyclo[4,3,0]nonane-7-one]
[1]; 125 g ai/ha
  phytotoxicity rating SORHA: 0
[1]; 500 g ai/ha
  phytotoxicity rating SORHA: 60
[2]; 125 g ai/ha
  phytotoxicity rating ECHCG: 0
[2]; 500 g ai/ha
  phytotoxicity rating ECHCG: 0
[3]; 125 g ai/ha
  phytotoxicity rating AMBEL: 80
[3]; 500 g ai/ha
  phytotoxicity rating AMBEL: 90
[4]; 125 g ai/ha
  phytotoxicity rating SETVI: 90
[4]; 500 g ai/ha
  phytotoxicity rating SETVI: 100
[5]; 125 g ai/ha
  phytotoxicity rating IPOHE: 0
[5]; 500 g ai/ha
  phytotoxicity rating IPOHE: 0
[6]; 125 g ai/ha
  phytotoxicity rating CHEAL: 100
[6]; 500 g ai/ha
  phytotoxicity rating CHEAL: 100
[7]; 125 g ai/ha
  phytotoxicity rating DIGSA: 60
[7]; 500 g ai/ha
  phytotoxicity rating DIGSA: 90
[8]; 125 g ai/ha
  phytotoxicity rating AMARE: 100
[8]; 500 g ai/ha
  phytotoxicity rating AMARE: 100
[9]; 125 g ai/ha
  phytotoxicity rating CASOB: 50
[9]; 500 g ai/ha
  phytotoxicity rating CASOB: 10
[10]; 125 g ai/ha
  phytotoxicity rating ABUTH: 90
[10]; 500 g ai/ha
  phytotoxicity rating ABUTH: 100
[11]; 63 g al/ha
  AMBEL phytotoxicity rating (0-100): 95
[11]; 500 g al/ha
  AMBEL phytotoxicity rating (0-100): 100
[12]; 500 g al/ha
  SORHA phytotoxicity rating (0-100): 30
[13]; 63 g al/ha
  ECHCG phytotoxicity rating (0-100): 0
[13]; 500 g al/ha
  ECHCG phytotoxicity rating (0-100): 20
[14]; 63 g al/ha
  SETVI phytotoxicity rating (0-100): 20
[14]; 500 g al/ha
  SETVI phytotoxicity rating (0-100): 60
[15]; 63 g al/ha
  IPOHE phytotoxicity rating (0-100): 100
[15]; 500 g al/ha
  IPOHE phytotoxicity rating (0-100): 100
[16]; 63 g al/ha
  CHEAL phytotoxicity rating (0-100): 100
[16]; 500 g al/ha
  CHEAL phytotoxicity rating (0-100): 100
[17]; 63 g al/ha
  DIGSA phytotoxicity rating (0-100): 30
[17]; 500 g al/ha
  DIGSA phytotoxicity rating (0-100): 60
[18]; 63 g al/ha
  AMARE phytotoxicity rating (0-100): 100
[18]; 500 g al/ha
  AMARE phytotoxicity rating (0-100): 100
[19]; 63 g al/ha
  CASOB phytotoxicity rating (0-100): 70
[19]; 500 g al/ha
  CASOB phytotoxicity rating (0-100): 20
[20]; 63 g al/ha
  ABUTH phytotoxicity rating (0-100): 90
[20]; 500 g al/ha
  ABUTH phytotoxicity rating (0-100): 100
